Laboratory results published in ChEMBL document CHEMBL3351559, “Spectroscopic investigations of the binding mechanisms between antimicrobial peptides and membrane models of Pseudomonas aeruginosa and Klebsiella pneumoniae” (2014).
Values after ≈ are worked out from the molar mass of the structure shown. Active and inactive are the calls of the source. The rule behind the calls is not given here. *1 amine or outer side, *2 acyl side, *3 side chain or, on linkers, in order; H or OH if unused. Where a SMILES comes first, the peptide text is derived from it. [ ]: non-standard residue; d: D form. ξ: configuration not given here. Phe(4-NO2) = N[C@@H](Cc1ccc([N+](=O)[O-])cc1)C(=O)O; Pro(3ξ,4ξ-(CH2)4) = O=C(O)[C@H]1NCC2CCCCC21; X1 = O=C([C@H]1C2CCCCC2CN1[*:1])[*:2]; Tic = O=C(O)[C@@H]1Cc2ccccc2CN1; dTic = O=C(O)[C@H]1Cc2ccccc2CN1; dOrn = NCCC[C@@H](N)C(=O)O; Dab = NCC[C@H](N)C(=O)O; βAla = NCCC(=O)O

What was measured:
[1] = test system: Lipopolysaccharide (LPS); assay: Binding affinity to Klebsiella pneumoniae lipopolysaccharide incorporated into phospholipid 75% POPC/20% POPE/5% POPG liposomes by Far-UV circular dichroism spectroscopy
[2] = test system: Lipopolysaccharide (LPS); assay: Binding affinity to Klebsiella pneumoniae lipopolysaccharide incorporated 75% POPC/20% POPE/5% POPG liposome by Far-UV circular dichroism spectroscopy
[3] = test system: Lipopolysaccharide (LPS); assay: Binding affinity to Klebsiella pneumoniae lipopolysaccharide at 0.1 mg by [1H] NMR spectroscopy
[4] = test system: Lipopolysaccharide (LPS); assay: Binding affinity to Klebsiella pneumoniae lipopolysaccharide incorporated into 75% POPC/20% POPE/5% POPG liposomes by Far-UV circular dichroism spectroscopy; conditions: Liposome
[5] = test system: Lipopolysaccharide (LPS); assay: Binding affinity to SUV consisting Pseudomonas aeruginosa lipopolysaccharide by CD spectroscopy
[6] = test system: Lipopolysaccharide (LPS); assay: Binding affinity to Pseudomonas aeruginosa lipopolysaccharide incorporated into 59% POPC/20% POPE/21% POPG by Far-UV circular dichroism spectroscopy
[7] = test system: Pseudomonas aeruginosa; assay: Antimicrobial activity against Pseudomonas aeruginosa PAO1; format: functional; conditions: for MIC: Pseudomonas aeruginosa, PAO1
[8] = test system: Lipopolysaccharide (LPS); assay: Binding affinity to Klebsiella pneumoniae lipopolysaccharide assessed as normalized peak area of proton resonances in region of 1.5 to 0.5 ppm by […] relative to untreated control
[9] = test system: Lipopolysaccharide (LPS); assay: Binding affinity to Pseudomonas aeruginosa lipopolysaccharide incorporated into 80% POPC/20% POPG by Far-UV circular dichroism spectroscopy
[10] = test system: Klebsiella pneumoniae; assay: Antimicrobial activity against Klebsiella pneumoniae BAMC 07-18; format: functional; conditions: for MIC: Klebsiella pneumoniae, BAMC 07-18
[11] = test system: Lipopolysaccharide (LPS); assay: Binding affinity to Pseudomonas aeruginosa lipopolysaccharide assessed as normalized peak area of proton resonances in region of 1.5 to 0.5 ppm by […] relative to untreated control
[12] = test system: Lipopolysaccharide (LPS); assay: Binding affinity to Pseudomonas aeruginosa lipopolysaccharide incorporated into 59% POPC/20% POPE/21% POPG liposomes by Far-UV circular dichroism spectroscopy; conditions: Liposome
[13] = test system: Lipopolysaccharide (LPS); assay: Binding affinity to Pseudomonas aeruginosa lipopolysaccharide at 0.1 mg by [1H] NMR spectroscopy
[14] = test system: Lipopolysaccharide (LPS); assay: Binding affinity to SUV consisting Klebsiella pneumoniae lipopolysaccharide by CD spectroscopy

Activity [1] | Activity [2] | Activity [3] | Activity [4] | Activity [5] | Activity [6] | MIC [7] [µM] | Activity [8] [%] | Activity [9] | MIC [10] [µM] | Activity [11] [%] | Activity [12] | Activity [13] | Activity [14] | SMILES | MBC [7] [µM] | MBC [10] [µM]
Active | Active | Active | Active | Active | Active | 40 (≈ 97.6 µg/mL) | 81 | Active | 40 (≈ 97.6 µg/mL) | 33 | Active | Active | Active | CC(=O)NCC(=O)N[C@@H](Cc1ccccc1)C(=O)N1Cc2ccccc2C[C@H]1C(=O)N1CC2CCCCC2[C@H]1C(=O)NCC(=O)N[C@@H](CCCCN)C(=O)N1Cc2ccccc2C[C@H]1C(=O)N1CC2CCCCC2[C@H]1C(=O)NCC(=O)N[C@@H](Cc1ccccc1)C(=O)N1Cc2ccccc2C[C@H]1C(=O)N1CC2CCCCC2[C@H]1C(=O)NCC(=O)N[C@@H](CCCCN)C(=O)N1Cc2ccccc2C[C@H]1C(=O)N[C@@H](CCCCN)C(=O)N[C@@H](CCCCN)C(=O)N[C@@H](CCCCN)C(=O)N[C@@H](CCCCN)C(N)=O (stereo partly drawn) (Ac-GF[Tic][Pro(3ξ,4ξ-(CH2)4)]GK[Tic][Pro(3ξ,4ξ-(CH2)4)]GF[Tic][Pro(3ξ,4ξ-(CH2)4)]GK[Tic]KKKK-NH2) | 40 (≈ 97.6 µg/mL) | 40 (≈ 97.6 µg/mL)
Active | Active | Active | Active | Active | Active | 38.4 (≈ 100 µg/mL) | 81 | Active | 19.1 (≈ 49.8 µg/mL) | 39 | Active | Active | Active | CC(=O)NCC(=O)N[C@@H](Cc1ccccc1)C(=O)N1Cc2ccccc2C[C@H]1C(=O)N1CC2CCCCC2[C@H]1C(=O)NCC(=O)N[C@@H](CCCNC(=N)N)C(=O)N1Cc2ccccc2C[C@H]1C(=O)N1CC2CCCCC2[C@H]1C(=O)NCC(=O)N[C@@H](Cc1ccccc1)C(=O)N1Cc2ccccc2C[C@H]1C(=O)N1CC2CCCCC2[C@H]1C(=O)NCC(=O)N[C@@H](CCCNC(=N)N)C(=O)N1Cc2ccccc2C[C@H]1C(=O)N[C@@H](CCCNC(=N)N)C(=O)N[C@@H](CCCNC(=N)N)C(=O)N[C@@H](CCCNC(=N)N)C(=O)N[C@@H](CCCNC(=N)N)C(N)=O (stereo partly drawn) (Ac-GF[Tic][Pro(3ξ,4ξ-(CH2)4)]GR[Tic][Pro(3ξ,4ξ-(CH2)4)]GF[Tic][Pro(3ξ,4ξ-(CH2)4)]GR[Tic]RRRR-NH2) | > 100 | 38.4 (≈ 100 µg/mL)
Active | Active | Active | Active | Active | Active | 5.5 (≈ 12.5 µg/mL) | 89 | Active | 5.5 (≈ 12.5 µg/mL) | 29 | Active | Active | Active | CC(=O)NCC(=O)N[C@@H](Cc1ccccc1)C(=O)N1Cc2ccccc2C[C@H]1C(=O)N1CC2CCCCC2[C@H]1C(=O)NCC(=O)N[C@@H](CCN)C(=O)N1Cc2ccccc2C[C@H]1C(=O)N1CC2CCCCC2[C@H]1C(=O)NCC(=O)N[C@@H](Cc1ccccc1)C(=O)N1Cc2ccccc2C[C@H]1C(=O)N1CC2CCCCC2[C@H]1C(=O)NCC(=O)N[C@@H](CCN)C(=O)N1Cc2ccccc2C[C@H]1C(=O)N[C@@H](CCN)C(=O)N[C@@H](CCN)C(=O)N[C@@H](CCN)C(=O)N[C@@H](CCN)C(N)=O (stereo partly drawn) (Ac-GF[Tic][Pro(3ξ,4ξ-(CH2)4)]G[Dab][Tic][Pro(3ξ,4ξ-(CH2)4)]GF[Tic][Pro(3ξ,4ξ-(CH2)4)]G[Dab][Tic][Dab][Dab][Dab][Dab]-NH2) | 11 (≈ 25 µg/mL) | 5.5 (≈ 12.5 µg/mL)
Active | Active | Active | Active | Active | Active | 21 (≈ 49.5 µg/mL) | 93 | Active | 21 (≈ 49.5 µg/mL) | 36 | Active | Active | Active | CC(=O)NCC(=O)N[C@@H](Cc1ccccc1)C(=O)N1Cc2ccccc2C[C@H]1C(=O)N1CC2CCCCC2[C@@H]1C(=O)NCC(=O)N[C@H](CCCN)C(=O)N1Cc2ccccc2C[C@@H]1C(=O)N1CC2CCCCC2[C@H]1C(=O)NCC(=O)N[C@H](Cc1ccccc1)C(=O)N1Cc2ccccc2C[C@@H]1C(=O)N1CC2CCCCC2[C@@H]1C(=O)NCC(=O)N[C@H](CCCN)C(=O)N1Cc2ccccc2C[C@@H]1C(=O)N[C@H](CCCN)C(=O)N[C@H](CCCN)C(=O)N[C@H](CCCN)C(=O)N[C@H](CCCN)C(N)=O (stereo partly drawn) (Ac-GF[Tic][X1]G[dOrn][dTic][Pro(3ξ,4ξ-(CH2)4)]G[dF][dTic][X1]G[dOrn][dTic][dOrn][dOrn][dOrn][dOrn]-NH2) | 21 (≈ 49.5 µg/mL) | 21 (≈ 49.5 µg/mL)
Active | Active | – | Active | Active | Active | 19.6 (≈ 49.6 µg/mL) | – | Active | 19.6 (≈ 49.6 µg/mL) | – | Active | – | Active | CC(=O)NCC(=O)N[C@@H](Cc1ccc([N+](=O)[O-])cc1)C(=O)N1Cc2ccccc2C[C@H]1C(=O)N1CC2CCCCC2[C@H]1C(=O)NCC(=O)N[C@@H](CCCCN)C(=O)N1Cc2ccccc2C[C@H]1C(=O)N1CC2CCCCC2[C@H]1C(=O)NCC(=O)N[C@@H](Cc1ccc([N+](=O)[O-])cc1)C(=O)N1Cc2ccccc2C[C@H]1C(=O)N1CC2CCCCC2[C@H]1C(=O)NCC(=O)N[C@@H](CCCCN)C(=O)N1Cc2ccccc2C[C@H]1C(=O)N[C@@H](CCCCN)C(=O)N[C@@H](CCCCN)C(=O)N[C@@H](CCCCN)C(=O)N[C@@H](CCCCN)C(N)=O (stereo partly drawn) (Ac-G[Phe(4-NO2)][Tic][Pro(3ξ,4ξ-(CH2)4)]GK[Tic][Pro(3ξ,4ξ-(CH2)4)]G[Phe(4-NO2)][Tic][Pro(3ξ,4ξ-(CH2)4)]GK[Tic]KKKK-NH2) | 39.1 (≈ 99 µg/mL) | 19.6 (≈ 49.6 µg/mL)
Active | Active | – | Active | Active | Active | 40 (≈ 99.9 µg/mL) | – | Active | 40 (≈ 99.9 µg/mL) | – | Active | – | Active | CC(=O)NCCC(=O)N[C@@H](Cc1ccccc1)C(=O)N1Cc2ccccc2C[C@H]1C(=O)N1CC2CCCCC2[C@H]1C(=O)NCCC(=O)N[C@@H](CCCCN)C(=O)N1Cc2ccccc2C[C@H]1C(=O)N1CC2CCCCC2[C@H]1C(=O)NCCC(=O)N[C@@H](Cc1ccccc1)C(=O)N1Cc2ccccc2C[C@H]1C(=O)N1CC2CCCCC2[C@H]1C(=O)NCCC(=O)N[C@@H](CCCCN)C(=O)N1Cc2ccccc2C[C@H]1C(=O)N[C@@H](CCCCN)C(=O)N[C@@H](CCCCN)C(=O)N[C@@H](CCCCN)C(=O)N[C@@H](CCCCN)C(N)=O (stereo partly drawn) (Ac-[βAla]F[Tic][Pro(3ξ,4ξ-(CH2)4)][βAla]K[Tic][Pro(3ξ,4ξ-(CH2)4)][βAla]F[Tic][Pro(3ξ,4ξ-(CH2)4)][βAla]K[Tic]KKKK-NH2) | 40 (≈ 99.9 µg/mL) | 40 (≈ 99.9 µg/mL)
